# Tests used:
# Rattus norvegicus [1] = organism: Rattus norvegicus; experiment: Intrinsic activity in rat isolated aorta; type: functional
# Rattus norvegicus [2] = organism: Rattus norvegicus; experiment: Negative logarithm of the molar concentration required to relax rat aorta precontracted with 30 mM KCl by 50% of intrinsic activity; type: functional; conditions: for EC50: Rattus norvegicus, Aorta
EC50 (Rattus norvegicus [2]),Log EC50 (Rattus norvegicus [2]),SMILES,IA (Rattus norvegicus [1])
0.0251 nM,,C/N=C(/S)C1=CC2(CCCC2)Oc2ccc([N+](=O)[O-])cc21,77.7%
0.0209 nM,,C/N=C(/S)C1=CC2(CCC2)Oc2ccc([N+](=O)[O-])cc21,68.2%
0.112 nM,,C/N=C(/S)C1=CC2(CCCCC2)Oc2ccc([N+](=O)[O-])cc21,77.6%
0.017 nM,,CCCC1(C)C=C(/C(S)=N\C)c2cc([N+](=O)[O-])ccc2O1 (stereo unspecified),62.6%
0.182 nM,,CCC1(C)C=C(/C(S)=N\C)c2cc([N+](=O)[O-])ccc2O1 (stereo unspecified),75.1%
407 nM,,C/N=C(/S)C1=CC2(Oc3ccc([N+](=O)[O-])cc31)C1CC3CC(C1)CC2C3 (stereo unspecified),87.9%
47.9 nM,,C/N=C(/S)C1=CC2(CCCCCC2)Oc2ccc([N+](=O)[O-])cc21,61.5%
0.372 nM,,CCC1(CC)C=C(/C(S)=N\C)c2cc([N+](=O)[O-])ccc2O1,70.3%

# The next lines start with the compound.
SMILES,EC50 (Rattus norvegicus [2]),Log EC50 (Rattus norvegicus [2]),IA (Rattus norvegicus [1])
C/N=C(/S)C1=CC(C)(C)Oc2ccc([N+](=O)[O-])cc21,,,63.5%
CCC1C=C(/C(S)=N\C)c2cc([N+](=O)[O-])ccc2O1 (stereo unspecified),> 31600 nM,,
C/N=C(/S)C1=CC(C)(C)Oc2ccc(C#N)cc21,,,89%
CCCCC1(C)C=C(/C(S)=N\C)c2cc([N+](=O)[O-])ccc2O1 (stereo unspecified),40.7 nM,,66.5%
C/N=C(/S)C1=CC(C(C)(C)C)Oc2ccc([N+](=O)[O-])cc21 (stereo unspecified),0.398 nM,,71.7%
C/N=C(/S)C1=C(O)C(C)(C)Oc2ccc([N+](=O)[O-])cc21,1120 nM,,93.9%
C/N=C(/S)C1c2cc([N+](=O)[O-])ccc2OC(C)(C)C1O (stereo in doubt; cis),,-6.96,57.9%
C/N=C(/S)C1c2cc([N+](=O)[O-])ccc2OC(C)(C)C1O (stereo in doubt; trans),,-6.58,73.2%
CC1(C)Oc2ccc(C#N)cc2[C@@H](N2CCCC2=O)[C@@H]1O [CROMAKALIM],,,74.7%
CC(N/C(=N\C#N)Nc1ccncc1)C(C)(C)C (stereo unspecified) [PINACIDIL ANHYDROUS],,,91.9%

# — ChEMBL document CHEMBL1153254, “Vasorelaxant activity of 2-substituted 6-nitro-2H-1-benzopyran-4-carbothioamide K+ channel openers” (Bioorg Med Chem Lett, 1993)
